Data published in patent publication US20060083754A1, “Pharmaceutical combinations comprising corticoids and immunosuppressants for treating corticoid- and/or calcineurin inhibitors-resistant diseases” (priority 2003, published 2006).

What was measured:
[1] = system: human peripheral blood mononuclear cells (PBMC); experiment: T-cell proliferation assay (BrdU ELISA), PBMC stimulated with anti-CD3 mAb + anti-CD28 mAb; assay type: cell-based; settings: anti-CD3 mAb (0.1 μg/ml)+anti-CD28 mAb (1 μg/ml); for inhibition at 10 µM / inhibition at 0.03 µM: Homo sapiens, PBMC
[2] = system: human peripheral blood mononuclear cells (PBMC); experiment: T-cell proliferation assay (BrdU ELISA), PBMC stimulated with SEB; assay type: cell-based; settings: SEB (0.1 μg/ml), BETA 300 nM
[3] = Example 1, 200000 cells/well, HC 10 μM, ASM 30 nM, BETA 300 nM
[4] = Example 2, 100000 cells/well, HC 10 μM, ASM 30 nM, BETA 300 nM
[5] = Example 3, 50000 cells/well, HC 10 μM, ASM 30 nM, BETA 300 nM
[6] = Example 6, 200000 cells/well, DEX 300 nM, ASM 30 nM, BETA 300 nM
[7] = Example 7, 100000 cells/well, DEX 300 nM, ASM 30 nM, BETA 300 nM
[8] = Example 8, 50000 cells/well, DEX 300 nM, ASM 30 nM, BETA 300 nM
[9] = Example 13, 200000 cells/well, HC 10 μM, FK 30 nM, BETA 300 nM
[10] = Example 14, 100000 cells/well, HC 10 μM, FK 30 nM, BETA 300 nM
[11] = Example 15, 200000 cells/well, DEX 300 nM, FK 30 nM, BETA 300 nM
[12] = Example 16, 100000 cells/well, DEX 300 nM, FK 30 nM, BETA 300 nM
[13] = Example 17, 50000 cells/well, DEX 300 nM, FK 30 nM, BETA 300 nM
[14] = Example 19, 200000 cells/well, HC 10 μM, CsA 300 nM, BETA 300 nM, HC (10 μM)+CsA (30 nM), BETA (300 nM)+CsA (300 nM)
[15] = Example 20, 100000 cells/well, HC 10 μM, CsA 300 nM, BETA 300 nM, HC (10 μM)+CsA (30 nM), BETA (300 nM)+CsA (300 nM)
[16] = Example 21, 50000 cells/well, HC 10 μM, CsA 300 nM, BETA 300 nM, HC (10 μM)+CsA (30 nM), BETA (300 nM)+CsA (300 nM)
[17] = Example 23, 200000 cells/well, DEX 300 nM, CsA 300 nM, BETA 300 nM, DEX (300 nM)+CsA (30 nM), BETA (300 nM)+CsA (300 nM)
[18] = Example 24, 100000 cells/well, DEX 300 nM, CsA 300 nM, BETA 300 nM, DEX (300 nM)+CsA (30 nM), BETA (300 nM)+CsA (300 nM)
[19] = Example 25, 50000 cells/well, DEX 300 nM, CsA 300 nM, BETA 300 nM, DEX (300 nM)+CsA (30 nM), BETA (300 nM)+CsA (300 nM)
[20] = Example 4, 200000 cells/well, HC 10 μM, ASM 30 nM
[21] = Example 5, 100000 cells/well, HC 10 μM, ASM 30 nM
[22] = Example 9, 200000 cells/well, DEX 300 nM, ASM 30 nM
[23] = Example 10, 100000 cells/well, DEX 300 nM, ASM 30 nM
[24] = Example 22, 200000 cells/well, HC 10 μM, CsA 300 nM, HC (10 μM)+CsA (30 nM), BETA (300 nM)+CsA (300 nM)
[25] = Example 26, 200000 cells/well, DEX 300 nM, CsA 300 nM, DEX (300 nM)+CsA (30 nM), BETA (300 nM)+CsA (300 nM)
[26] = Example 18, 100000 cells/well, DEX 300 nM, FK 30 nM

## CCCCC(=O)O[C@]1(C(=O)CO)[C@@H](C)C[C@H]2[C@@H]3CCC4=CC(=O)C=C[C@]4(C)[C@@]3(F)[C@@H](O)C[C@@]21C [BETA, betamethasone 17-valerate]
[1]; [3]
  Normalized OD (% STIM-C): 105.2 % STIM-C
  OD: 0.808
[1]; [4]
  Normalized OD (% STIM-C): 87.3 % STIM-C
  OD: 0.796
[1]; [5]
  Normalized OD (% STIM-C): 99.4 % STIM-C
  OD: 0.873
[1]; [6]
  Normalized OD (% STIM-C): 89.2 % STIM-C
  OD: 0.703
[1]; [7]
  Normalized OD (% STIM-C): 82.4 % STIM-C
  OD: 0.692
[1]; [8]
  Normalized OD (% STIM-C): 75.4 % STIM-C
  OD: 0.794
[1]; [9]
  Normalized OD (% STIM-C): 105.2 % STIM-C
  OD: 0.808
[1]; [10]
  Normalized OD (% STIM-C): 87.3 % STIM-C
  OD: 0.796
[1]; [11]
  Normalized OD (% STIM-C): 89.2 % STIM-C
  OD: 0.703
[1]; [12]
  Normalized OD (% STIM-C): 82.4 % STIM-C
  OD: 0.692
[1]; [13]
  Normalized OD (% STIM-C): 75.4 % STIM-C
  OD: 0.794
[1]; [14]
  Normalized OD (% STIM-C): 105.2 % STIM-C
  OD: 0.808
[1]; [15]
  Normalized OD (% STIM-C): 87.3 % STIM-C
  OD: 0.796
[1]; [16]
  Normalized OD (% STIM-C): 99.4 % STIM-C
  OD: 0.873
[1]; [17]
  Normalized OD (% STIM-C): 89.2 % STIM-C
  OD: 0.703
[1]; [18]
  Normalized OD (% STIM-C): 82.4 % STIM-C
  OD: 0.692
[1]; [19]
  Normalized OD (% STIM-C): 75.4 % STIM-C
  OD: 0.794
[2]; [20]
  Normalized OD (% STIM-C): 85.0 % STIM-C
  OD: 0.900
[2]; [21]
  Normalized OD (% STIM-C): 117.6 % STIM-C
  OD: 1.001
[2]; [22]
  Normalized OD (% STIM-C): 99.7 % STIM-C
  OD: 0.902
[2]; [23]
  Normalized OD (% STIM-C): 97.4 % STIM-C
  OD: 0.955
[2]; [24]
  Normalized OD (% STIM-C): 85.0 % STIM-C
  OD: 0.900
[2]; [25]
  Normalized OD (% STIM-C): 99.7 % STIM-C
  OD: 0.902

## C[C@]12CCC(=O)C=C1CC[C@@H]1[C@@H]2[C@@H](O)C[C@@]2(C)[C@H]1CC[C@]2(O)C(=O)CO [HC, hydrocortisone]
[1]; [3]
  Normalized OD (% STIM-C): 106.8 % STIM-C
  inhibition at 10 µM: -7.4%
[1]; [4]
  Normalized OD (% STIM-C): 92.0 % STIM-C
  inhibition at 10 µM: < 17%
[1]; [5]
  Normalized OD (% STIM-C): 109.0 % STIM-C
  inhibition at 10 µM: -9.7%
[1]; [9]
  Normalized OD (% STIM-C): 106.8 % STIM-C
  inhibition at 10 µM: -7.4%
[1]; [10]
  Normalized OD (% STIM-C): 92.0 % STIM-C
[1]; [14]
  Normalized OD (% STIM-C): 106.8 % STIM-C
[1]; [15]
  Normalized OD (% STIM-C): 92.0 % STIM-C
[1]; [16]
  Normalized OD (% STIM-C): 109.0 % STIM-C
[2]; [20]
  Normalized OD (% STIM-C): 89.0 % STIM-C
[2]; [21]
  Normalized OD (% STIM-C): 100.5 % STIM-C
[2]; [24]
  Normalized OD (% STIM-C): 89.0 % STIM-C

## C=CC[C@@H]1/C=C(\C)C[C@H](C)C[C@H](OC)[C@H]2O[C@@](O)(C(=O)C(=O)N3CCCC[C@H]3C(=O)O[C@H](/C(C)=C/[C@@H]3CC[C@@H](O)[C@H](OC)C3)[C@H](C)[C@@H](O)CC1=O)[C@H](C)C[C@@H]2OC [FK, tacrolimus]
[1]; [9]
  Normalized OD (% STIM-C): 119.9 % STIM-C
  OD: 0.921
  inhibition at 0.03 µM: -21.9%
[1]; [10]
  Normalized OD (% STIM-C): 72.6 % STIM-C
  OD: 0.662
  inhibition at 0.03 µM: < 31%
[1]; [11]
  Normalized OD (% STIM-C): 100.9 % STIM-C
  OD: 0.795
[1]; [12]
  Normalized OD (% STIM-C): 96.3 % STIM-C
  OD: 0.809
[1]; [13]
  Normalized OD (% STIM-C): 79.6 % STIM-C
  OD: 0.838
  inhibition at 0.03 µM: < 26%
[1]; [26]
  Normalized OD (% STIM-C): 78.0 % STIM-C
  OD: 0.905
  inhibition at 0.03 µM: < 25%
